Experimental data reported in patent publication US7232812B2, “Substituted azetidine compounds, their preparation and use as medicaments” (Laboratorios de Dr. Esteve S.A., priority 2004, dated 2007).

Assays:
Format in all cases: in vivo
rats [1] = assay: Analgesia test in rats (carrageenan, thermal stimulus); conditions: Rattus norvegicus, oral route, 2 hours after administration, read-out: ED50 analgesic activity
Procedure: III: Analgesia Test in Rats
The inventive compounds are tested for analgesic activity as described above is carried out as described in the publication of K. Hargreaves et al., Pain, 32, 77–88, (1988). The respective part of the description is hereby incorporated by reference and forms part of the disclosure.
The rats are transferred to the experimentation laboratory, where they remain in groups of 5, in makrolon cages with a barred floor to avoid coprophagy. At the beginning of the experiment, water and food were removed, and animals were adequately weighed and marked.
Each rat receives via subplantar injection 0.1 ml of sterile saline solution into the left hind paw, followed by 0.1 ml of a 2% (weight/volume) carrageenan suspension in sterile saline solution into the right hind paw.
Two hours after the subplantar injections of carrageenan and vehicle, each rat receives by oral route the compounds to be tested, suspended in 5% (weight/volume) gum arabic, administered at 10 ml per kg of body weight.
Two hours after the administration of the compounds to be tested, the values for analgesic activity are determined. To this purpose, the rats are transferred to the methacrylate chambers of an analgesimeter provided with a glass floor. […]

rats [2] = assay: Test for activity against edema in rats (carrageenin paw); conditions: Rattus norvegicus, oral route
Procedure: IV. Test for Activity Against Edema in Rats
The test for activity against edema is carried out as described in the publication of Winter et al., Proc. Soc. Exp. Biol. Med. 111, 544–547, (1962). The respective part of the description is hereby incorporated by reference and forms part of the present disclosure.
At the beginning of each experimental session the rats are deprived of food, and kept in cages within groups of 5 animals, the cages being fitted with a grating on the floor to prevent coprophagy. After a period of 24 hours without food, the animals are marked in a suitable way, weighed and hydrated via oral administration of 30 ml/kg body weight of tap water. Half an hour after the hydratisation, the compounds to be tested are administered via oral route, in an amount of 10 ml/kg body weight as a suspension in gum arabic at 5% (weigh/volume). One hour after administration of the compounds the animals receive 0.1 ml of the inflammation causing agent (carrageenin 1% weight/volume, in sterile solution), injected via subplantar route into the right hind paw of the rats. Immediately after the carrageenin injection the volume of the injected paw is determined using a plethysmometer. The readings are expressed in ml. Readings of the volume of the paw are taken every hour after administration of the carrageenin for 7 hours.

PGE2 production [3] = assay: PGE2 production in rat gastric mucosa; conditions: rats, oral route, read-out: PGE2 gastric mucose ED50
Procedure: (§1) VI: PGE2 Production in Rat Inflammatory Exudate and Gastric Mucosa
(§2) The PGE2 production in rat inflammatory exudate and gastric mucosa is carried out as described in the publication of O Tofanetti et al., “Effect of nimesulide on cyclo-oxygenase activity in rat gastric mucosa and inflammatory exudate”, Med Sci Res 17, 745–746 (1989). The respective part of the description is hereby incorporated by reference and forms part of the present disclosure.
(§3) For this text 6 male wistar rats (Interfauna-St Feliú de Codines, Barcelona) of approximately 200 g (each approximately 6 weeks of age) are used. The compounds to be tested are administered via oral route in gum Arabic at 5% (weight/volume) at a rate of 10 ml/kg.
(§4) One hour after administration of the compounds and under halothane anaesthesia, each rat is implanted subcutaneously in the interescapular area a 40×15×5 mm polyester sponge, soaked in a 0.5% suspension of carrageenan. […]
(§5) The rats's stomachs are removed and the gastric mucosa is detached from the underlying layers and by means of a 10 mm diameter die, mucosa samples from an area between the gastric corpus and pyloric antrum are taken. […] PGE2 concentrations from the inflammatory exudates and the gastric mucosa are determined by means of immunoassay reagents of Cayman Chemical kit, Ann Arbor, Mich., U.S.A. (Catalogue number: 514010) according to the manufacturer's instructions.

PGE2 production [4] = assay: PGE2 production in rat inflammatory exudate; conditions: rats, oral route, carrageenan sponge exudate, read-out: PGE2 Inflam. exudade ED50
Procedure: as §1, §2, §3, §4, §5

| Compound | ED50 (rats [1]) [mg/kg] | ED50 (rats [2]) [mg/kg] | ED50 (PGE2 production [3]) [mg/kg] | ED50 (PGE2 production [4]) [mg/kg] |
| --- | --- | --- | --- | --- |
| CC(C)(C)c1cc(C(=O)N2CC(O)C2)cc(C(C)(C)C)c1O [Example 1, (3,5-di-tert-butyl-4-hydroxy-phenyl)-(3-hydroxy-azetidin-1-yl)-methanone] | 0.4 | 3 | 0.16 | 0.28 |
| CC(C)(C)c1cc(CN2CC(O)C2)cc(C(C)(C)C)c1O [Example 17, 1-(3,5-di-tert-butyl-4-hydroxy-benzyl)-azetidin-3-ol] |  | 62 |  |  |
| CC1(O)CN(C(=O)c2cc(C(C)(C)C)c(O)c(C(C)(C)C)c2)C1 [Example 3, (3,5-di-tert-butyl-4-hydroxy-phenyl)-(3-hydroxy-3-methyl-azetidin-1-yl)-methanone] | 0.14 | 58 | 7.3 | 0.5 |
